From US10030025B2, “Substituted [1,2,4]triazolo[4,3-a]pyrazines as selective NK-3 receptor antagonists” (EUROSCREEN SA, priority 2013, dated 2018)

Columns and labels:
[1] = tested on: circulating levels of luteinizing hormone (LH); experiment: Castrated male rat model, circulating luteinizing hormone (LH); type: in vivo; conditions: castrated male SD rats, single oral dose less than or equal to 30 mg/kg, p<0.05
Method: Castrated male rat model to assess the effect of compound of invention on circulating levels of luteinizing hormone (LH)
The effect of compounds of the invention to inhibit luteinizing hormone (LH) secretion is determined by the following biological studies.
In humans and rodents, castration is well-precedented to permit heightened, persistent GnRH signaling and consequent elevation of circulating LH. Thus, a castrated rat model is used to provide a broad index for measurement of LH inhibition as a marker of test compound inhibition of the GnRH signaling pathway.
Castrated adult male Sprague-Dawley (SD) rats (150-175 g) were purchased from Janvier (St Berthevin, France). All animals were housed 2 per cage in a temperature-controlled room (22±2° C.) and 50±5% relative humidity with a 12 hour/12 hour light/dark cycles (lights off at 6h00 pm). The animals were allowed 3 weeks of postoperative recovery prior to study. Animals were handled on a daily basis. Standard diet and tap water were provided ad libitum. Animal cage litters were changed once a week. On the study day, animals were acclimated to the procedure room for a period of one hour prior to the initiation of the experiment.
Compounds of the invention were formulated in 0.5% methyl cellulose.
After basal sampling (T0) a single dose of compounds of the invention or vehicle was administrated orally to rats. Blood samples were then collected at several time points post dosing (45, 90, 150, 300 and 420 minutes). Blood samples were obtained via tail vein bleed, drawn into EDTA-containing tubes and centrifuged immediately. Plasma samples were collected and stored in a −80° C. freezer until assayed. Serum LH levels were determined using radioimmunoassay kit from RIAZEN—Rat LH, Zentech (Liège, Belgium). Baseline was defined as the initial basal blood sample.

[2] = tested on: plasma testosterone; experiment: Plasma testosterone in gonad intact male rats; type: in vivo, rat; conditions: gonad intact male SD rats, 3 mg/kg single oral administration, vs vehicle, over the test period
Method: The study was designed to evaluate the effect of compounds of the invention on testosterone circulating levels following oral administration at 3 mg/kg on SD gonad intact male rats.
Two groups of non-fasted rats (male, Sprague-Dawley, 200 to 225 g; n=4 rats/group) with jugular vein cannulation, were dosed via a single oral administration of compounds of the invention at 3 mg/kg. The control group was dosed with the vehicle. Compounds of the invention were prepared in a dose formulation of pyrogen-free water with 0.5% methylcellulose. Blood samples were collected via the catheter implanted in the jugular vein at pre-determined intervals using EDTA-3K as anti-coagulant. Samples were chilled and rapidly processed by centrifugation to obtain corresponding plasma samples. Testosterone hormone levels were determined by RIA performed on plasma samples collected for all the groups at 5 minutes before administration (basal time), and at 45, 90, 150, 300, 480 minutes and 24 hours after dosing.

[3] = tested on: plasma estradiol levels; experiment: Estradiol circulating level in female rats; type: in vivo, rat; conditions: adult female rats, 10 mg/kg b.i.d. oral, 10 days, two consecutive estrous cycles
Method: The aim of this study was to evaluate the effect of compounds of the invention on plasma estradiol levels following oral administration at 10 mg/kg (b.i.d.) for a period of 10 days in female rats.
Two groups of adult, female rats (Sprague-Dawley, ˜320 g) were treated in-phase with their individual estrous cycles. Thus, treatment was started in the proestrus phase (coincident with peak estradiol levels, as shown on Day 1 in FIG. 3) and rats were dosed twice daily (˜9h30 and 17h30) by oral administration either with a compound of the invention at 10 mg/kg or with the vehicle for the control group. Compounds of the invention were prepared in a dose formulation of pyrogen-free water with 0.5% methylcellulose. Estradiol levels were determined for all groups by ELISA performed on plasma samples derived from blood collections taken at 30 minutes before the daily, 9h30 test article administration on all days presented in FIG. 3.

[4] = tested on: body temperature; experiment: Thermoregulation in ovariectomized (OVX) ewes; type: in vivo, ewe; conditions: 1 mg/kg intravenous bolus
From the text: After 4 months recovery, animals were acclimatised to housing in single pens for a period of 7 days with ad libitum access to water and […] lucerne hay. One day prior to experimentation, the animals received a jugular vein cannula ([…], Tuta Laboratories, Lane Cove, Australia). The cannulae were kept patent with heparinised saline. On the day of the experiment, compound no 5 of the present invention was formulated in physiological saline with 9% 2-hydroxypropyl-β-cyclodextrin at a concentration of 2 mg/mL. Compound no 5 (1 mg/kg, N=5) or vehicle (N=5) was administered at 11h00 by intravenous bolus injection at a dose volume of 0.5 mL/kg through the jugular cannula and the injected material was flushed into the animal with 5 mL of heparinised saline. Animals were fed at 12h00. Rectal temperatures were monitored with a probe at hourly intervals throughout the experiment, starting at 7h40 and concluding at 15h40. […] However, this pyrogenic response to feeding in ovarectomized ewes was not observed in any animals treated with compound no 5. […] Graphical data presented as mean±SEM for vehicle-treated versus compound no 5-treated ewes (N=5/group). Statistical analyses performed by 2-way ANOVA followed by Sidak's Multiple Comparisons Test between treatment groups at the indicated time interval, *p<0.05.

Compound | Effect on circulating LH levels [1] | other results
Cc1nsc(-c2nnc3n2CCN(C(=O)c2ccc(Cl)c(Cl)c2)[C@@H]3C)n1 [Compound 1, (R)-(3,4-dichlorophenyl)(8-methyl-3-(3-methyl-1,2,4-thiadiazol-5-yl)-5,6-dihydro-[1,2,4]triazolo[4,3-a]pyrazin-7(8H)-yl)methanone] | significantly suppressed circulating LH levels | –
CCc1nsc(-c2nnc3n2CCN(C(=O)c2ccc(F)cc2)[C@@H]3C)n1 [Compound 2, (R)-(3-(3-ethyl-1,2,4-thiadiazol-5-yl)-8-methyl-5,6-dihydro-[1,2,4]triazolo[4,3-a]pyrazin-7(8H)-yl)(4-fluorophenyl)methanone] | significantly suppressed circulating LH levels | –
Cc1nsc(-c2nnc3n2CCN(C(=O)c2ccc(Cl)c(F)c2)[C@@H]3C)n1 [Compound 4, (R)-(4-chloro-3-fluorophenyl)(8-methyl-3-(3-methyl-1,2,4-thiadiazol-5-yl)-5,6-dihydro-[1,2,4]triazolo[4,3-a]pyrazin-7(8H)-yl)methanone] | significantly suppressed circulating LH levels | –
Cc1nsc(-c2nnc3n2CCN(C(=O)c2ccc(F)cc2)[C@@H]3C)n1 [Compound 5, (R)-(4-fluorophenyl)(8-methyl-3-(3-methyl-1,2,4-thiadiazol-5-yl)-5,6-dihydro-[1,2,4]triazolo[4,3-a]pyrazin-7(8H)-yl)methanone] | significantly suppressed circulating LH levels | Effect on plasma testosterone level [2]: significantly suppressed plasma testosterone level; Effect on estradiol levels [3]: significantly decreased estradiol levels; Pyrogenic response to feeding [4]: not observed
Cc1nsc(-c2nnc3n2CCN(C(=O)c2ccc(F)c(F)c2F)[C@@H]3C)n1 [Compound 8, (R)-(8-methyl-3-(3-methyl-1,2,4-thiadiazol-5-yl)-5,6-dihydro-[1,2,4]triazolo[4,3-a]pyrazin-7(8H)-yl)(2,3,4-trifluorophenyl)methanone] | significantly suppressed circulating LH levels | –
Cc1nsc(-c2nnc3n2CCN(C(=O)c2ccc(F)c(F)c2)[C@@H]3C)n1 [Compound 9, (R)-(3,4-difluorophenyl)(8-methyl-3-(3-methyl-1,2,4-thiadiazol-5-yl)-5,6-dihydro-[1,2,4]triazolo[4,3-a]pyrazin-7(8H)-yl)methanone] | significantly suppressed circulating LH levels | –
CCc1noc(-c2nnc3n2CCN(C(=O)c2ccc(F)cc2)[C@@H]3C)n1 [Compound 13, (R)-(3-(3-ethyl-1,2,4-oxadiazol-5-yl)-8-methyl-5,6-dihydro-[1,2,4]triazolo[4,3-a]pyrazin-7(8H)-yl)(4-fluorophenyl)methanone] | significantly suppressed circulating LH levels | –
Cc1nsc(-c2nnc3n2CCN(C(=O)c2ccccc2)[C@@H]3C)n1 [Compound 20, (R)-(8-methyl-3-(3-methyl-1,2,4-thiadiazol-5-yl)-5,6-dihydro-[1,2,4]triazolo[4,3-a]pyrazin-7(8H)-yl)(phenyl)methanone] | significantly suppressed circulating LH levels | –
CCc1noc(-c2nnc3n2CCN(C(=O)c2ccc(-c4cccs4)cc2)[C@@H]3C)n1 [Compound 30, (R)-(3-(3-ethyl-1,2,4-oxadiazol-5-yl)-8-methyl-5,6-dihydro-[1,2,4]triazolo[4,3-a]pyrazin-7(8H)-yl)(4-(thiophen-2-yl)phenyl)methanone] | significantly suppressed circulating LH levels | –
